In brackets after ≈: the same amount, converted by molar mass. Like-named read-outs stand apart in the source and are kept apart here. Blank lines part the entries; values can stand above or below the compound they belong to.
Tests used:
[1] = system: P. falciparum; set-up: method as in PMID 14513908; settings: cited from earlier work
[2] = system: human and monkey cell lines; set-up: method as in PMID 14513908; settings: cited from earlier work
[3] = system: Leishmania infantum (MHOM/BR/1974/PP75) in THP-1 macrophages; assay: Anti-Leishmania infantum activity assay (infected THP-1 macrophages, red fluorescence); assay type: cell-based; settings: for IC50: Leishmania infantum, L. infantum in THP-1 macrophages, 72 h; for Status: L. infantum, activity status from IC50 and SI
Procedure: (§1) Their half-maximum cytotoxic concentrations (CC50) and their selectivity indices (SI), obtained as the ratio of the cytotoxic concentration against the bioactive concentration are shown in Table 2. Theoretically, the higher the SI value, the greater the effectiveness for the target and the lower the toxicity of the compound, characterizing a potentially safe and selective drug.
Cells derived from the human monocytic strain THP-1 were cultured in complete Rowell Park Memorial Institute (RPMI)-1640 medium (supplemented with 10% fetal bovine serum, 100 U/mL penicillin, and 100 μg/mL streptomycin). Monocytes were differentiated into macrophages by the addition of 20 ng/mL phorbol myristate acetate (PMA). […] The IC50 values were determined by non-linear regression using a variable slope model (log[concentration] vs. growth inhibition) with the GraphPad Prism v8.2.0 (Boston, MA, USA) software. Controls with uninfected cells, untreated infected cells, infected cells treated with amphotericin B at 0.25 μM (positive control) or DMSO 1% were used. Quadruplicates were run in the same plate, and the experiments were repeated at least once.

[4] = Cytotoxicity on THP-1 derived macrophages (AlamarBlue); assay type: cell-based; settings: human, THP-1 cells differentiated into macrophages, THP-1 macrophages
Procedure: For the cytotoxicity assay, human monocytic THP-1 cells were differentiated into macrophages in 96-well microtiter plates for 72 h, as described above. The medium was then replaced, and the cells were exposed to the compounds at increasing concentrations starting at IC50 value for each Leishmania spp. line. After 72 h of incubation with the compounds, AlamarBlue™ was added and the absorbance at 570 and 600 nm was measured after 4 h. Controls with untreated and DMSO 1%-treated cells were run in parallel. The results were expressed as the percentual difference in the reduction between treated and untreated cells. The compound concentration that inhibits 50% of the THP-1 cell viability (CC50) was determined. The CC50 values were determined by non-linear regression using a variable slope model (log(concentration) vs. growth inhibition) with the GraphPad Prism v8.2.0 (CA, USA) software. Triplicates were run in the same plate and the experiments were repeated at least once.

[5] = system: T. cruzi Tulahuen strain in L929 cells; assay: Anti-Trypanosoma cruzi activity assay (infected L929 cells, beta-galactosidase reporter); assay type: cell-based; settings: for IC50: Trypanosoma cruzi, T. cruzi Tulahuen in L929 cells, 96 h; for Status: T. cruzi, activity status from IC50 and SI
Procedure: as §1
The in vitro anti-T. cruzi activity was evaluated on L929 cells (mouse fibroblasts) infected with Tulahuen strain of the parasite expressing the Escherichia coli β-galactosidase as reporter gene according to the method described previously. Briefly, four thousand L929 cells were added to each well of a 96-well microtiter plate. After an overnight incubation, a 10 fold excess of trypomastigotes were added to the cells, incubated for 2 h, then replaced with 200 μL of fresh medium and incubated for additional 48 h to establish the infection. For IC50 determination, the cells were exposed to each synthesized compound at serial decreasing dilutions and the plate was incubated for 96 h. Afterwards, 50 μL of 500 μM chlorophenol red beta-D-galactopyranoside (CPRG) in 0.5% Nonidet P40 was added to each well, and the plate incubated for 16 to 20 h, after which the absorbance at 570 nm was measured. Controls with uninfected cells, untreated infected cells, infected cells treated with benznidazole at 3.8 μM (positive control) or 1% DMSO were used. The results were expressed as the percentage of T. cruzi growth inhibition in compound tested cells as compared to the infected cells and untreated cells. The IC50 values were calculated by linear interpolation. Quadruplicates were run in the same plate, and the experiments were repeated at least once.
(§2) IC50 over T. cruzi and L929 cells were determined by linear interpolation and the selectivity index (SI) was calculated by the ratio of CC50 L929 cells/ IC50 T. cruzi.

[6] = Cytotoxicity on L929 cells (AlamarBlue); assay type: cell-based; settings: mouse, L929 mouse fibroblast cells
Procedure: The medium was then replaced, and the cells were exposed to compounds at increasing concentrations starting at IC50 value for T. cruzi. After 96 h of incubation with the compounds, AlamarBlue^TM was added and the absorbance at 570 and 600 nm was measured after 4–6 h. Controls with untreated and DMSO 1%-treated cells were run in parallel. The results were expressed as the percent difference in the reduction between treated and untreated cells. The compound concentration that inhibits 50% of the L929 cell viability (CC50) was determined. Quadruplicates were run in the same plate and the experiments were repeated at least once.
as §2

[7] = system: P. falciparum chloroquine-resistant and mefloquine-sensitive W2 clone; assay: Anti-Plasmodium falciparum activity assay (SYBR, erythrocytic asexual stages); assay type: cell-based; settings: for IC50: Plasmodium falciparum, W2, 48 h
Procedure: In vitro assay with P. falciparum culture were performed as described previously. […] The activity was measured using the SYBR assay with the parasite suspension (0.5% parasitemia and 2% hematocrit) with minor modifications. The test compounds, in serial dilutions, were incubated in “U” bottom 96-wells plates. After 48 h at 37 °C, the culture supernatant was removed and replaced by 100 µL of lysis buffer solution [Tris (20 mM; pH 7.5), EDTA (5 mM), saponin (0.008%; wt/vol), and Triton X 100 (0.08%; vol/vol)] followed by addition of 0.2 µL/mL SYBR Safe (Sigma-Aldrich, Carlsbad, CA, USA). The plate content was transferred to a flat bottom plate and incubated in the dark for 30 min. The plate was read in a fluorometer (Synergy H4 Hibrid Reader, Biotek) with excitation at 485 nm and 535 nm of emission. In all tests, the compound activities were expressed by the 50% inhibitory concentration of the parasite growth (IC50) when compared to the drug-free controls and estimated using the curve-fitting software Origin 8.0 (OriginLab Corporation, Northampton, MA, USA).

[8] = Cytotoxicity, neutral red uptake assay on BGM cells; assay type: cell-based; settings: BGM monkey kidney cells
Procedure: The BGM cells were incubated with 20 µL of the drugs at different concentrations (≤1000 µg/mL) for 24 h in a 5% CO2 at 37 °C. The neutral red uptake assay was used to evaluate the lysosomal integrity and distinguishes live cells from dead by its ability to incorporate the dye. Briefly, to each well was added 0.2 mL medium containing 50 µg/mL of neutral red solution. The plate was incubated for another 3 h at 37 °C to allow for the uptake of the vital dye into the lysosomes of viable uninjured cells. After removal of medium, 200 µL of a mixture of 0.5% formaldehyde-1% CaCl2 was added to the cells and incubated by 5 min. The supernatant was removed and 100 µL of a solution of 1% acetic acid-50% ethanol was added to each well to extract the dye. After homogenization, the optical density of each well of the plate was measured using a 540 nm wavelength on a spectrophotometer. This absorbance has shown a linear relationship with the number of surviving cells. The cell viability was expressed as the percentage of control absorbance obtained from the untreated cells after subtracting the appropriate background.

[9] = P. falciparum W2 clone, 48 h, SYBR, read-out: IC50

SMILES: CN1C(=O)C2(CO)NC(=O)C1(Cc1ccccc1)SSSS2 (stereo not shown) [1-demethylhyalodendrin tetrasulfide]
IC50 [1]: 6.7 µM
cytotoxicity [2]: high cytotoxicity

IC50 [3]: 0.228 ± 0.025 µg/mL (≈ 0.247 µM)
SMILES: C[C@@H]1[C@H](O)[C@@H](C)/C=C/C=C/C=C/C=C/C=C/C=C/C=C/[C@H](O[C@@H]2O[C@H](C)[C@@H](O)[C@H](N)[C@@H]2O)C[C@@H]2O[C@](O)(C[C@@H](O)C[C@@H](O)[C@H](O)CC[C@@H](O)C[C@@H](O)CC(=O)O[C@H]1C)C[C@H](O)[C@H]2C(=O)O [Amphotericin B, reference compound]
CC50 at 72 h [4]: 367 ± 1 µg/mL (≈ 397 µM)

SMILES: O=C(Cn1ccnc1[N+](=O)[O-])NCc1ccccc1 [Benznidazole, reference compound]
IC50 [5]: 0.5 ± 0.1 µg/mL (≈ 1.92 µM)
CC50 at 96 h [6]: 540 µg/mL (≈ 2070 µM)

SMILES: CCN(CC)CCCC(C)Nc1ccnc2cc(Cl)ccc12 (stereo not shown) [Chloroquine, reference compound]
IC50 [7]: 0.174 ± 0.055 µg/mL

SMILES: CCc1ccc(C2C(=O)N(c3ccc(Cl)cc3)CC(=O)N2c2ccccc2)cc1 (stereo not shown) [Compound 2]
Status [3]: inactive
IC50 [3]: > 100 µg/mL

SMILES: CN(C)c1ccc(C2C(=O)N(c3ccc(Cl)cc3)CC(=O)N2c2ccccc2)cc1 (stereo not shown) [Compound 3]
Status [3]: inactive
IC50 [3]: 49.1 ± 1.6 µg/mL (≈ 117 µM)

SMILES: O=C1C(c2ccc(Cl)cc2)N(c2ccccc2)C(=O)CN1c1ccc(Cl)cc1 (stereo not shown) [Compound 4]
Status [3]: inactive
IC50 [3]: 35.7 ± 0.8 µg/mL (≈ 86.8 µM)

SMILES: O=C1C(c2ccccc2F)N(c2ccccc2)C(=O)CN1c1ccc(Cl)cc1 (stereo not shown) [Compound 5]
IC50 [7, 9]: 15.6 ± 2.6 µg/mL
CC50 at 24 h [8]: ≤ 3.1 µg/mL
Status [5]: toxic (selectivity index = CC50/IC50, values < 10 are considered toxic)
IC50 [5]: 9.3 ± 0.1 µg/mL (≈ 23.6 µM)
CC50 at 96 h [6]: 29.2 µg/mL (≈ 74 µM)

SMILES: CC(=O)Nc1ccc(C2C(=O)N(c3ccc(Cl)cc3)CC(=O)N2c2ccccc2)cc1 (stereo not shown) [Compound 7]
Status [3]: part. ACTIVE (20 > IC50 > 10 µg/mL partially active)
IC50 [3]: 16 ± 1 µg/mL (≈ 36.9 µM)
CC50 at 72 h [4]: 679 ± 1 µg/mL (≈ 1560 µM)

SMILES: COc1ccc(C2C(=O)N(c3ccc(Cl)cc3)CC(=O)N2c2ccccc2)cc1Br (stereo not shown) [Compound 8]
Status [5]: ACTIVE
IC50 [5]: 7.3 ± 1.5 µg/mL (≈ 15 µM)
CC50 at 96 h [6]: > 400 µg/mL

SMILES: COc1ccc(OC)c(C2C(=O)N(c3ccc(Cl)cc3)CC(=O)N2c2ccccc2)c1 (stereo not shown) [Compound 9]
Status [3]: inactive
IC50 [3]: 50.8 ± 1.1 µg/mL (≈ 116 µM)

IC50 [7, 9]: 28.1 ± 0.3 µg/mL
SMILES: O=C1C(c2cccc(Cl)c2)N(c2ccccc2)C(=O)CN1c1ccc(Cl)cc1 (stereo not shown) [Compound 10]
Status ([7]; P. falciparum, activity status from IC50 and SI): inactive
